Values of other authors in PubChem BioAssay AID1259409 (Chemical Carcinogenesis Research Information System (CCRIS), 2018).

Test system: rodent chemically induced tumor inhibition, incidence and multiplicity
Experiment: CCRIS tumor inhibitor studies
Conditions: Route [Inhibitor]: ORAL, Species: RAT, Promoter: NONE USED

O=[Se](O)O
tumour outcome (control, treated, inhibition, significance) (Carcinogen: 7,12-DIMETHYLBENZ[A]ANTHRACENE, 57-97-6, Dose [Inhibitor]: 5 PPM IN 25% CORN OIL DIET DAILY FOR 4 WK STARTING 2 WK BEFORE CARCINOGEN TREATMENT AND CONTINUING FOR 2 WK POST CARCINO, Strain/Sex: SPRAGUE-DAWLEY/FEMALE, Target Tissue: Type of Lesion: MAMMARY GLAND: ADENOCARCINOMA, Dose [Carcinogen]: 10 MG ONCE AT 50 D OF AGE): 97%, 72%, 26%, p<0.02 | tumour outcome (control, treated, inhibition, significance) (Carcinogen: 7,12-DIMETHYLBENZ[A]ANTHRACENE, 57-97-6, Dose [Inhibitor]: 5 PPM IN 25% CORN OIL DIET DAILY FOR 10 WK STARTING 2 WK AFTER CARCINOGEN TREATMENT (STUDY DURATION: 24 WK), Strain/Sex: SPRAGUE-DAWLEY/FEMALE, Target Tissue: Type of Lesion: MAMMARY GLAND: ADENOCARCINOMA, Dose [Carcinogen]: 10 MG ONCE AT 50 D OF AGE): 97%, 86%, 11%, not significant | tumour outcome (control, treated, inhibition, significance) (Carcinogen: 7,12-DIMETHYLBENZ[A]ANTHRACENE, 57-97-6, Dose [Inhibitor]: 5 PPM IN 25% CORN OIL DIET DAILY FOR 12 WK STARTING 12 WK AFTER CARCINOGEN TREATMENT (STUDY DURATION: 24 WK), Strain/Sex: SPRAGUE-DAWLEY/FEMALE, Target Tissue: Type of Lesion: MAMMARY GLAND: ADENOCARCINOMA, Dose [Carcinogen]: 10 MG ONCE AT 50 D OF AGE): 97%, 91%, 6%, not significant | tumour outcome (control, treated, inhibition, significance) (Carcinogen: 7,12-DIMETHYLBENZ[A]ANTHRACENE, 57-97-6, Dose [Inhibitor]: 5 PPM IN 25% CORN OIL DIET DAILY FOR 14 WK STARTING 2 WK BEFORE CARCINOGEN TREATMENT (STUDY DURATION: 26 WK), Strain/Sex: SPRAGUE-DAWLEY/FEMALE, Target Tissue: Type of Lesion: MAMMARY GLAND: ADENOCARCINOMA, Dose [Carcinogen]: 10 MG ONCE AT 50 D OF AGE): 97%, 57%, 41%, p<0.02 | tumour outcome (control, treated, inhibition, significance) (Carcinogen: 7,12-DIMETHYLBENZ[A]ANTHRACENE, 57-97-6, Dose [Inhibitor]: 5 PPM IN 25% CORN OIL DIET DAILY FOR 22 WK STARTING 2 WK AFTER CARCINOGEN TREATMENT AND CONTINUING FOR DURATION OF STUDY, Strain/Sex: SPRAGUE-DAWLEY/FEMALE, Target Tissue: Type of Lesion: MAMMARY GLAND: ADENOCARCINOMA, Dose [Carcinogen]: 10 MG ONCE AT 50 D OF AGE): 97%, 69%, 26%, p<0.02 | tumour outcome (control, treated, inhibition, significance) (Carcinogen: 7,12-DIMETHYLBENZ[A]ANTHRACENE, 57-97-6, Dose [Inhibitor]: 5 PPM IN 25% CORN OIL DIET DAILY FOR 26 WK STARTING 2 WK BEFORE CARCINOGEN TREATMENT AND CONTINUING FOR DURATION OF STUD, Strain/Sex: SPRAGUE-DAWLEY/FEMALE, Target Tissue: Type of Lesion: MAMMARY GLAND: ADENOCARCINOMA, Dose [Carcinogen]: 10 MG ONCE AT 50 D OF AGE): 97%, 46%, 53%, p<0.02 | tumour outcome (control, treated, inhibition, significance) (Carcinogen: AZOXYMETHANE, 25843-45-2, Dose [Inhibitor]: 0.5 PPM IN DIET BEGINNING 1 WK POST CARCINOGEN DOSE FOR DURATION OF STUDY (STUDY DURATION: 39 WK), Strain/Sex: F344/MALE, Target Tissue: Type of Lesion: COLON: ADENOCARCINOMA, Dose [Carcinogen]: 15 MG/KG BW 1/WK FOR 2 WK): 10/27 (37%), 9/27 (33%), 11%, not significant | tumour outcome (control, treated, inhibition, significance) (Carcinogen: AZOXYMETHANE, 25843-45-2, Dose [Inhibitor]: 0.5 PPM IN DIET BEGINNING 1 WK POST CARCINOGEN DOSE FOR DURATION OF STUDY (STUDY DURATION: 39 WK), Strain/Sex: F344/MALE, Target Tissue: Type of Lesion: COLON: ADENOMA, Dose [Carcinogen]: 15 MG/KG BW 1/WK FOR 2 WK): 16/27 (59%), 20/27 (74%), -25%, not significant | tumour outcome (control, treated, inhibition, significance) (Carcinogen: AZOXYMETHANE, 25843-45-2, Dose [Inhibitor]: 0.5 PPM IN DIET BEGINNING 1 WK POST CARCINOGEN DOSE FOR DURATION OF STUDY (STUDY DURATION: 39 WK), Strain/Sex: F344/MALE, Target Tissue: Type of Lesion: DUODENUM: ADENOCARCINOMA, Dose [Carcinogen]: 15 MG/KG BW 1/WK FOR 2 WK): 7/27 (26%), 7/27 (26%), 0%, not significant | tumour outcome (control, treated, inhibition, significance) (Carcinogen: AZOXYMETHANE, 25843-45-2, Dose [Inhibitor]: 0.5 PPM IN DIET BEGINNING 1 WK POST CARCINOGEN DOSE FOR DURATION OF STUDY (STUDY DURATION: 39 WK), Strain/Sex: F344/MALE, Target Tissue: Type of Lesion: DUODENUM: ADENOMA, Dose [Carcinogen]: 15 MG/KG BW 1/WK FOR 2 WK): 3/27 (11%), 4/27 (15%), -36%, not significant | tumour outcome (control, treated, inhibition, significance) (Carcinogen: AZOXYMETHANE, 25843-45-2, Dose [Inhibitor]: 0.5 PPM IN DIET BEGINNING 3 WK PRIOR TO CARCINOGEN DOSE AND CONTINUING FOR 1 WK POST CARCINOGEN DOSE (STUDY DURATION: 39, Strain/Sex: F344/MALE, Target Tissue: Type of Lesion: COLON: ADENOMA, Dose [Carcinogen]: 15 MG/KG BW 1/WK FOR 2 WK): 16/27 (59%), 16/27 (59%), 0%, not significant | tumour outcome (control, treated, inhibition, significance) (Carcinogen: AZOXYMETHANE, 25843-45-2, Dose [Inhibitor]: 0.5 PPM IN DIET BEGINNING 3 WK PRIOR TO CARCINOGEN DOSE AND CONTINUING FOR 1 WK POST CARCINOGEN DOSE (STUDY DURATION: 39, Strain/Sex: F344/MALE, Target Tissue: Type of Lesion: DUODENUM: ADENOCARCINOMA, Dose [Carcinogen]: 15 MG/KG BW 1/WK FOR 2 WK): 7/27 (26%), 7/27 (26%), 0%, not significant | tumour outcome (control, treated, inhibition, significance) (Carcinogen: AZOXYMETHANE, 25843-45-2, Dose [Inhibitor]: 0.5 PPM IN DIET BEGINNING 3 WK PRIOR TO CARCINOGEN DOSE AND CONTINUING FOR 1 WK POST CARCINOGEN DOSE (STUDY DURATION: 39, Strain/Sex: F344/MALE, Target Tissue: Type of Lesion: DUODENUM: ADENOMA, Dose [Carcinogen]: 15 MG/KG BW 1/WK FOR 2 WK): 3/27 (11%), 2/27 (7%), 36%, not calculated | tumour outcome (control, treated, inhibition, significance) (Carcinogen: AZOXYMETHANE, 25843-45-2, Dose [Inhibitor]: 2.5 PPM IN DIET BEGINNING 1 WK POST CARCINOGEN DOSE FOR DURATION OF STUDY (STUDY DURATION: 39 WK), Strain/Sex: F344/MALE, Target Tissue: Type of Lesion: COLON: ADENOCARCINOMA, Dose [Carcinogen]: 15 MG/KG BW 1/WK FOR 2 WK): 10/27 (37%), 1/27 (4%), 89%, p<0.05 | tumour outcome (control, treated, inhibition, significance) (Carcinogen: AZOXYMETHANE, 25843-45-2, Dose [Inhibitor]: 2.5 PPM IN DIET BEGINNING 1 WK POST CARCINOGEN DOSE FOR DURATION OF STUDY (STUDY DURATION: 39 WK), Strain/Sex: F344/MALE, Target Tissue: Type of Lesion: COLON: ADENOMA, Dose [Carcinogen]: 15 MG/KG BW 1/WK FOR 2 WK): 16/27 (59%), 12/27 (44%), 25%, not significant
